Article PMC3750913 (BMC Microbiology, 2013)

Tests used:
HCMV [1] = experiment: Viral inactivation assay; format: cell-based, human cytomegalovirus; details: HCMV, HEL cells; CHLA 60 μM, PUG 40 μM, Heparin 30 μg/ml
DENV-2 [2] = experiment: Viral inactivation assay; format: cell-based, dengue virus type 2; details: DENV-2, Vero cells; CHLA 25 μM, PUG 25 μM, Heparin 200 μg/ml
RSV [3] = experiment: Viral inactivation assay; format: cell-based, respiratory syncytial virus; details: RSV, HEp-2 cells; CHLA 1 μM, PUG 2 μM, Heparin 1 μg/ml
HCMV [4] = experiment: Viral attachment assay, method 1 (host cell infection); format: cell-based, human cytomegalovirus; details: HCMV, HEL cells, 4°C; CHLA 60 μM, PUG 40 μM, Heparin 30 μg/ml
HCV [5] = experiment: as above; format: cell-based, hepatitis C virus; details: HCV, Huh-7.5 cells, 4°C; CHLA 50 μM, PUG 50 μM, Heparin 1000 μg/ml
DENV-2 [6] = experiment: as above; format: cell-based, dengue virus type 2; details: DENV-2, Vero cells, 4°C; CHLA 25 μM, PUG 25 μM, Heparin 200 μg/ml
MV [7] = experiment: as above; format: cell-based, measles virus; details: MV, CHO-SLAM cells, 4°C; CHLA 90 μM, PUG 50 μM, Heparin 10 μg/ml
RSV [8] = experiment: as above; format: cell-based, respiratory syncytial virus; details: RSV, HEp-2 cells, 4°C; CHLA 1 μM, PUG 2 μM, Heparin 1 μg/ml
HCMV [9] = experiment: Viral attachment assay, method 2 (virus-specific cellular ELISA); format: cell-based, human cytomegalovirus; details: HCMV MOI 5, ELISA, 4°C; highest inhibitory concentration of the compounds
HCV [10] = experiment: as above; format: cell-based, hepatitis C virus; details: HCV MOI 0.1, ELISA, 4°C; highest inhibitory concentration of the compounds
DENV-2 [11] = experiment: as above; format: cell-based, dengue virus type 2; details: DENV-2 MOI 5, ELISA, 4°C; highest inhibitory concentration of the compounds
RSV [12] = experiment: as above; format: cell-based, respiratory syncytial virus; details: RSV MOI 5, ELISA, 4°C; highest inhibitory concentration of the compounds
HCMV [13] = experiment: Viral penetration assay; format: cell-based, human cytomegalovirus; details: HCMV
HCV [14] = experiment: Viral penetration assay; format: cell-based, hepatitis C virus; details: HCV
DENV-2 [15] = experiment: Viral penetration assay; format: cell-based, dengue virus type 2; details: DENV-2, Vero cells; CHLA 25 μM, PUG 25 μM, Heparin 200 μg/ml
MV [16] = experiment: Viral penetration assay; format: cell-based, measles virus; details: MV
HCMV [17] = experiment: Analysis of drug effects post viral entry; format: cell-based, human cytomegalovirus; details: HCMV, HEL cells; CHLA 60 μM, PUG 40 μM, Heparin 30 μg/ml
HCV [18] = experiment: Analysis of drug effects post viral entry; format: cell-based, hepatitis C virus; details: HCV, Huh-7.5 cells; CHLA 50 μM, PUG 50 μM, Heparin 1000 μg/ml
DENV-2 [19] = experiment: Analysis of drug effects post viral entry; format: cell-based, dengue virus type 2; details: DENV-2, Vero cells; CHLA 25 μM, PUG 25 μM, Heparin 200 μg/ml
MV [20] = experiment: Analysis of drug effects post viral entry; format: cell-based, measles virus; details: MV, CHO-SLAM cells; CHLA 90 μM, PUG 50 μM, Heparin 10 μg/ml
RSV [21] = experiment: Analysis of drug effects post viral entry; format: cell-based, respiratory syncytial virus; details: RSV, HEp-2 cells; CHLA 1 μM, PUG 2 μM, Heparin 1 μg/ml
HCMV [22] = experiment: Viral cell-to-cell spread assay; format: cell-based, human cytomegalovirus; details: HCMV
HCV [23] = experiment: Viral cell-to-cell spread assay; format: cell-based, hepatitis C virus; details: HCV
Protocol: (A) Schematic of the experiment (left) with the virus concentration (PFU/well) and step-wise incubation periods (i, ii, iii) indicated for each virus in the table on the right. Virus infections were established (i) in the different cell types by direct inoculation (HCMV, DENV-2, MV, and RSV) or electroporation of viral RNA (HCV; *), and the cell monolayers were washed with citrate buffer or PBS before being covered with an overlay medium that prevents secondary infection. Initial virus plaques were allowed to form in the subsequent infections (ii), and then the test compounds were added to the overlay medium for an additional time of incubation (iii) before analysis of viral plaque size by immune fluorescence microscopy. Five random virus-positive plaques at the endpoint of the experiment were evaluated for each treatment group of viruses, and the data was plotted as “fold change of plaque area” against the size of the initial viral plaques formed prior to test compound treatment. Analyses for (B) HCMV, (C) HCV, (D) DENV-2, (E) MV, and (F) RSV are indicated in each additional panel. The S29 cell line and the FIP inhibitor were included as controls for HCV and MV, respectively. Results shown are means ± SEM from three independent experiments and representative micrographs of the evaluated plaques are provided in Additional file 1 Figure S1, Additional file 2 Figure S2, Additional file 3 Figure S3, Additional file 4 Figure S4 and Additional file 5 Figure S5. See text for details.
The examination of HCV spread is based on previously described protocol with some modifications. Huh-7.5 cells were electroporated with HCV Jc1FLAG2(p7-nsGluc2A) RNA (10 μg) as described above to establish random productive infections in the cell population, and then mixed with naïve cells at a ratio of 1:1 before seeding in 12-well plates. […] Medium was changed 24 h post-electroporation with an overlay medium containing the test drugs or control and 0.5% methylcellulose, and the plates were further incubated for 5 days before analysis of HCV-positive foci through immunostaining.
For immunofluorescence analysis of viral plaque size due to spread, the overlay media were removed and the wells were fixed with ice-cold methanol before blocking with 3% BSA. Samples were then treated at 37°C for 1 h with the respective mouse monoclonal primary antibodies diluted in PBS containing 3% BSA: anti-HCMV gB antibody (1:1,000), anti-NS5A 9E10 antibody for HCV (1:25,000), anti-flavivirus group antibody (1:400) for DENV-2, and anti-RSV fusion protein antibody (1:1,000). After incubation, the wells were washed with PBS three times before applying Alexa Fluor 488 goat anti-mouse IgG (H + L) antibody (Invitrogen), diluted at 1:1,000 (HCMV and RSV) or 1:400 (DENV-2 and HCV) in PBS containing 3% BSA. Following incubation at 37°C for 1 h, the samples were washed with PBS three times prior to visualization by fluorescence microscopy. The fluorescence expression of MV-EGFP could be readily detected without addition of antibodies. Photomicrographs were taken at × 100 magnification (Leica Microsystems; Wetzlar, Germany) and viral plaque sizes were then analyzed with MetaMorph software (Molecular Devices; Sunnyvale, CA, USA). In the case of HCV, cellular nuclei were stained with Hoechst dye (Sigma) prior to visualization and the number of cells in the virus-positive foci was determined. For all virus tested, a total of five random virus-positive plaques were evaluated for each treatment group per independent experiment. Comparison was made between viral plaques stained prior to drug addition and those at the endpoint of the experiment, and the data were plotted as “fold change of plaque area”.

DENV-2 [24] = experiment: Viral cell-to-cell spread assay; format: cell-based, dengue virus type 2
MV [25] = experiment: Viral cell-to-cell spread assay; format: cell-based, measles virus; details: MV
RSV [26] = experiment: Viral cell-to-cell spread assay; format: cell-based, respiratory syncytial virus; details: RSV
ADV-5 = system: ADV-5; set-up: method as in PMID 16894186, PMID 10704346; details: HS-mediated entry; ref [51], [52]; cited from earlier work
[27] = HEL cells, CHLA 60 μM, PUG 40 μM, Heparin 30 μg/ml
[28] = Huh-7.5 cells, CHLA 50 μM, PUG 50 μM, Heparin 1000 μg/ml
[29] = CHO-SLAM cells, CHLA 90 μM, PUG 50 μM, Heparin 10 μg/ml

Heparin [reference compound]
Window of antiviral effects: Free particle, inhibitory effect relative to DMSO control (HCMV [1]): + (+ 25–50%)
Window of antiviral effects: Free particle, inhibitory effect relative to DMSO control (DENV-2 [2]): ++ (++ 50–75%)
Window of antiviral effects: Free particle, inhibitory effect relative to DMSO control (RSV [3]): + (+ 25–50%)
Window of antiviral effects: Attachment Method 1, inhibitory effect relative to DMSO control (HCMV [4]): ++ (++ 50–75%)
Window of antiviral effects: Attachment Method 1, inhibitory effect relative to DMSO control (HCV [5]): + (+ 25–50%)
Window of antiviral effects: Attachment Method 1, inhibitory effect relative to DMSO control (DENV-2 [6]): +++ (+++ > 75%)
Window of antiviral effects: Attachment Method 1, inhibitory effect relative to DMSO control (MV [7]): +++ (+++ > 75%)
Window of antiviral effects: Attachment Method 1, inhibitory effect relative to DMSO control (RSV [8]): +++ (+++ > 75%)
Window of antiviral effects: Attachment Method 2, inhibitory effect relative to DMSO control (HCMV [9]): +++ (+++ > 75%)
Window of antiviral effects: Attachment Method 2, inhibitory effect relative to DMSO control (HCV [10]): +++ (+++ > 75%)
Window of antiviral effects: Attachment Method 2, inhibitory effect relative to DMSO control (DENV-2 [11]): +++ (+++ > 75%)
Window of antiviral effects: Attachment Method 2, inhibitory effect relative to DMSO control (RSV [12]): ++ (++ 50–75%)
Window of antiviral effects: Penetration, inhibitory effect relative to DMSO control (HCMV [13]; [27]): + (+ 25–50%)
protection of the host cell from infection during virus penetration (HCMV [13]; shift 4°C to 37°C, Figure 4): < 40%
Window of antiviral effects: Penetration, inhibitory effect relative to DMSO control (HCV [14]; [28]): - (- < 25%)
protection of the host cell from infection during virus penetration (HCV [14]; shift 4°C to 37°C, Figure 4): < 40%
Window of antiviral effects: Penetration, inhibitory effect relative to DMSO control (DENV-2 [15]): ++ (++ 50–75%)
Window of antiviral effects: Penetration, inhibitory effect relative to DMSO control (MV [16]; [29]): + (+ 25–50%)
protection of the host cell from infection during virus penetration (MV [16]; shift 4°C to 37°C, Figure 4): < 40%
Window of antiviral effects: Post-infection, inhibitory effect relative to DMSO control (HCMV [17]): - (- < 25%)
Window of antiviral effects: Post-infection, inhibitory effect relative to DMSO control (HCV [18]): + (+ 25–50%)
Window of antiviral effects: Post-infection, inhibitory effect relative to DMSO control (DENV-2 [19]): - (- < 25%)
Window of antiviral effects: Post-infection, inhibitory effect relative to DMSO control (MV [20]): - (- < 25%)
Window of antiviral effects: Post-infection, inhibitory effect relative to DMSO control (RSV [21]): - (- < 25%)
Window of antiviral effects: Cell-to-cell spread, inhibitory effect relative to DMSO control (HCMV [22]; [27]): - (- < 25%)
effect on viral plaque size (cell-to-cell spread) (HCMV [22]; Figure 7): limited effect
Window of antiviral effects: Cell-to-cell spread, inhibitory effect relative to DMSO control (HCV [23]; [28]): - (- < 25%)
effect on viral plaque size (cell-to-cell spread) (HCV [23]; Figure 7): limited effect
Window of antiviral effects: Cell-to-cell spread, inhibitory effect relative to DMSO control (DENV-2 [24]; DENV-2, Vero cells, CHLA 25 μM, PUG 25 μM, Heparin 200 μg/ml): - (- < 25%)
effect on viral plaque size (cell-to-cell spread) (DENV-2 [24]; DENV-2, Figure 7): limited effect
Window of antiviral effects: Cell-to-cell spread, inhibitory effect relative to DMSO control (MV [25]; [29]): - (- < 25%)
effect on viral plaque size (cell-to-cell spread) (MV [25]; Figure 7): limited effect
Window of antiviral effects: Cell-to-cell spread, inhibitory effect relative to DMSO control (RSV [26]; HEp-2 cells, CHLA 1 μM, PUG 2 μM, Heparin 1 μg/ml): - (- < 25%)
effect on viral plaque size (cell-to-cell spread) (RSV [26]; Figure 7): limited effect
maximum inhibition of ADV-5 by soluble heparin (ADV-5): ≤ 50%
